Calls of active or inactive are those of the source. No cut-off for these calls is given here.
Assays:
[1] = Inhibition of quorum sensing system in Pseudomonas aeruginosa PAO1 harboring mini-ctx-lasB-lacZ at 10 uM measured after 16 hrs by ONPG test relative to control
Pseudomonas aeruginosa [2] = experiment: Antibacterial activity against Pseudomonas aeruginosa PAO1 incubated for 24 hrs by absorbance based assay; type: functional
Pseudomonas aeruginosa [3] = experiment: Antibiofilm activity against Pseudomonas aeruginosa PAO1 harboring wspF mutant assessed as inhibition rate at 1.25 uM incubated for 24 hrs by absorbance based assay relative to control; type: functional
Pseudomonas aeruginosa [4] = experiment: Antibiofilm activity against Pseudomonas aeruginosa PAO1 harboring wspF mutant assessed as inhibition rate at 10 uM incubated for 24 hrs by absorbance based assay relative to control; type: functional
Pseudomonas aeruginosa [5] = experiment: Antibiofilm activity against Pseudomonas aeruginosa PAO1 harboring wspF mutant incubated for 24 hrs by absorbance based assay; type: functional, organism-based
Pseudomonas aeruginosa [6] = experiment: Antivirulence activity against Pseudomonas aeruginosa PAO1 assessed as reduction in elastase level incubated for 24 hrs by elastin-Congo red staining based analysis; type: functional, organism-based; details: dose <= 10.0 µM
Pseudomonas aeruginosa [7] = experiment: Antivirulence activity against Pseudomonas aeruginosa PAO1 assessed as reduction in rhamnolipid level incubated for 24 hrs by orcinol based analysis; type: functional, organism-based; details: dose <= 10.0 µM
Pseudomonas aeruginosa [8] = experiment: Antivirulence activity against Pseudomonas aeruginosa PAO1 assessed as reduction in pyocyanin level incubated for 24 hrs by absorbance based assay; type: functional, organism-based; details: dose <= 10.0 µM
Pseudomonas aeruginosa [9] = experiment: Antivirulence activity against Pseudomonas aeruginosa PAO1 assessed as reduction in elastase level at 10 uM incubated for 24 hrs by elastin-Congo red staining based analysis relative to control; type: functional; design: scale not given: the % may be the effect or the level left
Pseudomonas aeruginosa [10] = experiment: Antivirulence activity against Pseudomonas aeruginosa PAO1 assessed as reduction in rhamnolipid level at 10 uM incubated for 24 hrs by orcinol based analysis; type: functional, organism-based
Pseudomonas aeruginosa [11] = experiment: Antivirulence activity against Pseudomonas aeruginosa PAO1 assessed as reduction in hemolysin level at 10 uM preincubated for 24 hrs followed by addition of erythrocytes measured after 30 mins by absorbance based analysis relative to control; type: functional; design: scale not given: the % may be the effect or the level left
Pseudomonas aeruginosa [12] = experiment: Inhibition of beta-galactosidase in Pseudomonas aeruginosa PAO1 harboring mini-ctx-lacZ at 10 uM incubated for 6 hrs by ONPG test relative to control
Pseudomonas aeruginosa [13] = experiment: Inhibition of beta-galactosidase in Pseudomonas aeruginosa PAO1 harboring mini-ctx-lasB-lacZ at 10 uM incubated for 6 hrs by ONPG test relative to control
Pseudomonas aeruginosa [14] = experiment: Inhibition of beta-galactosidase in Pseudomonas aeruginosa PAO1 harboring mini-ctx-pqsA-lacZ at 10 uM incubated for 6 hrs by ONPG test relative to control
Pseudomonas aeruginosa [15] = experiment: Inhibition of beta-galactosidase in Pseudomonas aeruginosa PAO1 harboring mini-ctx-lasB-lacZ incubated for 6 hrs by ONPG test; details: dose <= 10.0 µM
Pseudomonas aeruginosa [16] = experiment: Inhibition of beta-galactosidase in Pseudomonas aeruginosa PAO1 harboring mini-ctx-pqsA-lacZ incubated for 6 hrs by ONPG test; details: dose <= 10.0 µM
Pseudomonas aeruginosa [17] = experiment: Inhibition of beta-galactosidase in Pseudomonas aeruginosa PAO1 harboring mini-ctx-rhlA-lacZ at 10 uM incubated for 6 hrs by ONPG test relative to control
Pseudomonas aeruginosa [18] = experiment: Inhibition of swarming motility of Pseudomonas aeruginosa PAO1 incubated overnight; type: functional, organism-based; details: dose <= 10.0 µM
Pseudomonas aeruginosa [19] = experiment: Inhibition of swimming motility of Pseudomonas aeruginosa PAO1 incubated overnight; type: functional, organism-based; details: dose <= 10.0 µM
Pseudomonas aeruginosa [20] = experiment: Inhibition of twitching motility of Pseudomonas aeruginosa PAO1 incubated overnight by crystal voilet staining based analysis; type: functional, organism-based; details: dose <= 10.0 µM
Pseudomonas aeruginosa [21] = experiment: Inhibition of swarming motility of Pseudomonas aeruginosa PAO1 at 10 uM incubated overnight; type: functional, organism-based
Pseudomonas aeruginosa [22] = experiment: Inhibition of swimming motility of Pseudomonas aeruginosa PAO1 at 10 uM incubated overnight relative to control; type: functional
Pseudomonas aeruginosa [23] = experiment: Inhibition of twitching motility of Pseudomonas aeruginosa PAO1 at 10 uM incubated overnight by crystal voilet staining based analysis; type: functional, organism-based
DNA [24] = experiment: Binding affinity to pBR322 DNA (unknown origin) assessed as DNA embedding toxicity at 50 uM preincubated for 10 mins followed by Topo I addition measured after 1 hr by TO dye based PAGE analysis; type: nucleic-acid assay; details: time 70.0 min
DNA [25] = experiment: Binding affinity to pBR322 DNA (unknown origin) assessed as DNA migration at 50 uM preincubated for 10 mins followed by Topo I addition measured after 1 hr by TO dye based PAGE analysis; type: nucleic-acid assay; details: time 70.0 min
[26] = Hemolytic activity in rabbit erythrocytes assessed as damage in cell membrane integrity at 100 uM incubated for 4 hrs by absorbance based assay; type: toxicity, Oryctolagus cuniculus; details: erythrocyte
Vero = experiment: Cytotoxicity against African green monkey Vero cells at 12.5 uM incubated for 24 hrs by MTT assay; type: toxicity, cell-based; details: chlorocebus sabaeus
Pseudomonas aeruginosa [27] = experiment: Synergistic antibacterial activity against Pseudomonas aeruginosa PAO1 assessed as bacterial growth inhibition at 20 uM incubated for 24 hrs in presence of tetracycline by CFU counting method; type: functional, organism-based
[28] = Toxicity in Caenorhabditis elegans assessed as nematode survival upto 100 uM incubated for 96 hrs
[29] = Toxicity in Caenorhabditis elegans infected with Pseudomonas aeruginosa PAO1 assessed as nematode survival at 10 uM incubated for 48 hrs
[30] = Toxicity in Caenorhabditis elegans infected with Pseudomonas aeruginosa PAO1 assessed as nematode survival at 10 uM incubated for 48 hrs in presence of tetracycline
[31] = Toxicity in Caenorhabditis elegans infected with Pseudomonas aeruginosa PAO1 assessed as reduction in nematode mortality rate at 10 uM incubated for 48 hrs in presence of TOB; design: scale not given: the % may be the effect or the level left
[32] = Toxicity in Caenorhabditis elegans infected with hyper-biofilm phenotype Pseudomonas aeruginosa PAO1 harboring wspF mutant assessed as nematode death at 10 uM incubated for 48 hrs in presence of TOB
[33] = Toxicity in Caenorhabditis elegans infected with hyper-biofilm phenotype Pseudomonas aeruginosa PAO1 harboring wspF mutant assessed as nematode death at 10 uM incubated for 48 hrs in presence of tetracycline
Pseudomonas aeruginosa [34] = experiment: Synergistic inhibition of bacterial virulence of Pseudomonas aeruginosa PAO1 infected in Caenorhabditis elegans upto 10 uM incubated for 36 hrs in presence of tetracycline; type: functional, organism-based
Pseudomonas aeruginosa [35] = experiment: Synergistic inhibition of bacterial virulence of Pseudomonas aeruginosa PAO1 infected in Caenorhabditis elegans upto 10 uM incubated for 36 hrs in presence of TOB; type: functional, organism-based
Pseudomonas aeruginosa [36] = experiment: Synergistic inhibition of bacterial virulence of hyper-biofilm phenotype Pseudomonas aeruginosa PAO1 harboring wspF mutant upto 10 uM incubated for 36 hrs in presence of tetracycline; type: functional, organism-based
Pseudomonas aeruginosa [37] = experiment: Synergistic inhibition of bacterial virulence of hyper-biofilm phenotype Pseudomonas aeruginosa PAO1 harboring wspF mutant upto 10 uM incubated for 36 hrs in presence of TOB; type: functional, organism-based

Q: With `Cc1cc(=O)c(O)c(/C=C/c2sc3ccccc3[n+]2C)o1` as the molecule, how does the inhibition [1] read?
A: 7.78%

Q: And the MIC (Pseudomonas aeruginosa [2])?
A: > 128 µM

Q: Which inhibition [1] does the source give for `C[n+]1c(/C=C/c2c[nH]c3cc(F)ccc23)ccc2ccccc21` here?
A: 9.14%

Q: What about the inhibition at 1.25 µM (Pseudomonas aeruginosa [3]) of the same molecule?
A: ~21%

Q: What about the MIC (Pseudomonas aeruginosa [2]) of the same molecule?
A: > 128 µM

Q: Which results are given for `Cc1ccc2[nH]cc(/C=C/c3ccc4ccccc4[n+]3C)c2c1`?
A: inhibition [1]: 17%; inhibition at 1.25 µM (Pseudomonas aeruginosa [3]): ~21%; MIC (Pseudomonas aeruginosa [2]): > 128 µM

Q: What does the source list for `Cc1ccc2c(/C=C/c3ccc4ccccc4[n+]3C)c[nH]c2c1`?
A: inhibition [1]: 16.2%; inhibition at 1.25 µM (Pseudomonas aeruginosa [3]): ~21%; MIC (Pseudomonas aeruginosa [2]): > 128 µM

Q: With `C[n+]1c(/C=C/c2c[nH]c3ccc(F)cc23)ccc2ccccc21.[I-]` as the molecule, how does the inhibition [1] read?
A: 40.3%

Q: What about the inhibition at 1.25 µM (Pseudomonas aeruginosa [3]) of the same molecule?
A: ~21%

Q: What about the inhibition at 10 µM (Pseudomonas aeruginosa [4]) of the same molecule?
A: ~40%

Q: And the inhibition (Pseudomonas aeruginosa [5])?
A: Dose-dependent-effect

Q: And the IC50 (Pseudomonas aeruginosa [5]; PAO1, 24 h)?
A: 23.4 µM

Q: What about the MIC (Pseudomonas aeruginosa [2]) of the same molecule?
A: > 128 µM

Q: What about the Activity (Pseudomonas aeruginosa [6]) of the same molecule?
A: Dose-dependent-effect

Q: And the Activity (Pseudomonas aeruginosa [7])?
A: Dose-dependent-effect

Q: And the Activity (Pseudomonas aeruginosa [8])?
A: Dose-dependent-effect

Q: What about the Activity (Pseudomonas aeruginosa [9]) of the same molecule?
A: 48.51%

Q: What about the Activity (Pseudomonas aeruginosa [10]) of the same molecule?
A: Active; Exhibited Relatively Modest Activity

Q: And the Activity (Pseudomonas aeruginosa [11])?
A: 51.3%

Q: And the inhibition (Pseudomonas aeruginosa [12])?
A: 8.03%

Q: And the inhibition (Pseudomonas aeruginosa [13])?
A: 30%

Q: And the inhibition (Pseudomonas aeruginosa [14])?
A: 30%

Q: And the inhibition (Pseudomonas aeruginosa [15])?
A: Dose-dependent-effect

Q: And the inhibition (Pseudomonas aeruginosa [16])?
A: Dose-dependent-effect

Q: What about the inhibition (Pseudomonas aeruginosa [17]) of the same molecule?
A: 10%

Q: What about the inhibition (Pseudomonas aeruginosa [18]) of the same molecule?
A: Dose-dependent-effect

Q: And the inhibition (Pseudomonas aeruginosa [19])?
A: Dose-dependent-effect

Q: What about the inhibition (Pseudomonas aeruginosa [20]) of the same molecule?
A: Dose-dependent-effect

Q: What about the inhibition (Pseudomonas aeruginosa [21]) of the same molecule?
A: Active; Inhibitory Effect Was Comparable To Qs Deficient Pao1 Double Mutant Lasi/Rhli

Q: And the inhibition at 10 µM (Pseudomonas aeruginosa [22])?
A: 22.4%

Q: What about the inhibition (Pseudomonas aeruginosa [23]) of the same molecule?
A: Active; Exhibited Only A Modest Impact

Q: What about the Activity (DNA [24]) of the same molecule?
A: Not toxic

Q: And the Activity (DNA [25])?
A: Not toxic

Q: And the Activity [26]?
A: Non-toxic

Q: And the Activity (Vero)?
A: Non-toxic

Q: What about the Activity (Pseudomonas aeruginosa [27]) of the same molecule?
A: Active

Q: What about the Activity [28] of the same molecule?
A: Non-toxic

Q: What about the Activity [29] of the same molecule?
A: Toxic

Q: And the Survival [30]?
A: 86.3%

Q: What about the Activity [31] of the same molecule?
A: ~ 50%

Q: And the Activity [32]?
A: Non-toxic

Q: What about the Activity [33] of the same molecule?
A: Non-toxic

Q: And the Activity (Pseudomonas aeruginosa [34])?
A: Active

Q: And the Activity (Pseudomonas aeruginosa [35])?
A: Active

Q: What about the Activity (Pseudomonas aeruginosa [36]) of the same molecule?
A: Active

Q: And the Activity (Pseudomonas aeruginosa [37])?
A: Active

Q: Which inhibition [1] does the source give for `C[n+]1c(/C=C/c2cc3ccccc3[nH]2)sc2ccccc21` here?
A: 2.23%

Q: And the MIC (Pseudomonas aeruginosa [2])?
A: > 128 µM

Q: With `C[n+]1c(/C=C/c2cccc3ocnc23)ccc2ccccc21` as the molecule, how does the inhibition [1] read?
A: 2.91%

Q: What about the MIC (Pseudomonas aeruginosa [2]) of the same molecule?
A: > 128 µM

Q: Which inhibition [1] does the source give for `C[n+]1c(/C=C/c2coc3ccccc3c2=O)sc2ccccc21` here?
A: 7.3%

Q: What about the MIC (Pseudomonas aeruginosa [2]) of the same molecule?
A: > 128 µM

Q: For `C[n+]1c(/C=C/c2c[nH]c3ccccc23)sc2ccccc21`, which inhibition [1] is on record?
A: 20.9%

Q: And the inhibition at 1.25 µM (Pseudomonas aeruginosa [3])?
A: ~21%

Q: What about the MIC (Pseudomonas aeruginosa [2]) of the same molecule?
A: > 128 µM

Q: For `C[n+]1c(/C=C/c2c[nH]c3cc(Cl)ccc23)ccc2ccccc21`, which inhibition [1] is on record?
A: 3.02%

Q: And the MIC (Pseudomonas aeruginosa [2])?
A: > 128 µM

Q: With `COc1ccc2[nH]cc(/C=C/c3ccc4ccccc4[n+]3C)c2c1` as the molecule, how does the inhibition [1] read?
A: 16.6%

Q: And the inhibition at 1.25 µM (Pseudomonas aeruginosa [3])?
A: ~21%

Q: And the MIC (Pseudomonas aeruginosa [2])?
A: > 128 µM

Q: Which results are given for `C[n+]1c(/C=C/c2ccc3ocnc3c2)sc2ccccc21`?
A: inhibition [1]: 1.14%; MIC (Pseudomonas aeruginosa [2]): > 128 µM

Q: Which inhibition [1] does the source give for `C[n+]1c(/C=C/c2c[nH]c3ccc(Cl)cc23)ccc2ccccc21` here?
A: 4.53%

Q: What about the MIC (Pseudomonas aeruginosa [2]) of the same molecule?
A: > 128 µM

Q: Which inhibition [1] does the source give for `C[n+]1c(/C=C/c2cc(=O)c(O)co2)sc2ccccc21` here?
A: 4.1%

Q: What about the MIC (Pseudomonas aeruginosa [2]) of the same molecule?
A: > 128 µM

Q: For `C[n+]1c(/C=C/c2c[nH]c3ccc(Br)cc23)ccc2ccccc21`, which inhibition [1] is on record?
A: 2.52%

Q: What about the MIC (Pseudomonas aeruginosa [2]) of the same molecule?
A: > 128 µM

Q: Which inhibition [1] does the source give for `C[n+]1c(/C=C/c2ccc3nc[nH]c3c2)ccc2ccccc21` here?
A: 1.69%

Q: And the MIC (Pseudomonas aeruginosa [2])?
A: > 128 µM

— ChEMBL document CHEMBL6078637, “Cyclic Diguanylate G-Quadruplex Inducer-Quorum Sensing Inhibitor Hybrids as Bifunctional Anti-biofilm and Anti-virulence Agents Against Pseudomonas aeruginosa” (J Med Chem, 2024)
